{
  "source": "patent US9783541B2",
  "about": "“5′-nucleotidase inhibitors and therapeutic uses thereof” (Centre National de la Recherche Scientifique-CNRS, priority 2013, dated 2017)",
  "key": {"[1]": {"tested_on": "RL cancer line", "assay": "Synergy MTT test with cytotoxic nucleoside analogs", "type": "cell-based, Human", "conditions": "for Synergy MTT with cladribine / Synergy MTT with clofarabine / Synergy MTT with fludarabine: RL cells, 72 h, constant ratio, CI95; for Synergy MTT with cladribine: partner cladribine; for Synergy MTT with clofarabine: partner clofarabine; for Synergy MTT with fludarabine: partner fludarabine; for synergistic effect with at least one of the three anticancer agents: cladribine, clofarabine, fludarabine", "description": "(§2) After 72 h of incubation, the living cells are quantified using the MTT reagent.\n(§3) The inhibitory concentration 50 (IC50) and the combination index (CI95) are calculated with the CompuSyn software 1.0 (ComboSyn, Inc., USA).\nThe CI95 is calculated according to the method of Chou and Talalay^3 with a formula which takes into account the concentrations of the two compounds and the fraction affected at these concentrations (i.e. the dead cells)."}, "[2]": {"biological_target": "purified recombinant cN-II enzyme (Homo sapiens, UniProt P49902)", "sequence (P49902 whole entry)": "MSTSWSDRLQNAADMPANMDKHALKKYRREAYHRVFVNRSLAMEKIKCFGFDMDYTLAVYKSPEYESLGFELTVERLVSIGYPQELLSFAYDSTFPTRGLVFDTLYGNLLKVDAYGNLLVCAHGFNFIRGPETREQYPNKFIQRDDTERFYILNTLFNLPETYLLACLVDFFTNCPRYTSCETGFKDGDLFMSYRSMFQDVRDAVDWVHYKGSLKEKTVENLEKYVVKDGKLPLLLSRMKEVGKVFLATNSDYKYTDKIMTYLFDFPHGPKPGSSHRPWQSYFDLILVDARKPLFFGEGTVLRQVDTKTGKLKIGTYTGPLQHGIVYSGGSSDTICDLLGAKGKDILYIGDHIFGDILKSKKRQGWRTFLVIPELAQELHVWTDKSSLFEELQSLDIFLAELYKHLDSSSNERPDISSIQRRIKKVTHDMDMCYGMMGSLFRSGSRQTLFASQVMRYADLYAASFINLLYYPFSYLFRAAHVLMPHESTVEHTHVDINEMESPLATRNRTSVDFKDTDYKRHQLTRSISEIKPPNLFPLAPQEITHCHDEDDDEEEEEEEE", "assay": "cN-II inhibition test (inorganic phosphate from IMP, Malachite green)", "type": "biochemical", "set-up": "key to Inhibition strength (Strong/Medium/Weak): Strong; Medium; Weak", "method": "The activity of cN-II is measured in vitro by following the appearance of the inorganic phosphate produced during the enzymatic reaction. The purified recombinant cN-II enzyme is used in the presence of its preferential substrate, inosine 5′-monophosphate (IMP). During the hydrolysis reaction, inosine and inorganic phosphate are produced from the IMP. This phosphate is then assayed by means of a colorimetric method using Malachite green (kit sold by the company Gentaur): the reading of absorbence at 630 nm makes it possible to quantify the inorganic phosphate.\nThe reagents used are: 50 mM imidazole buffer, pH=6.5, 500 mM NaCl and 10 mM MgCl2. The enzyme (cN-II) concentration is 0.1 μM and the IMP concentration is 100 μM.\nA phosphate concentration range is performed in parallel in order to quantify the phosphate produced during the reaction."}, "[3]": {"tested_on": "RL human follicular lymphoma cell line", "assay": "cytotoxicity on RL cancer line (MTT, IC50)", "conditions": "for IC50: read-out: RL cancer line IC50, 72 h incubation, MTT", "description": "as §2, §3"}, "[4]": {"tested_on": "cells of AML patients", "assay": "ex vivo cytotoxicity, Annexin V / propidium iodide flow cytometry, AML patient cells", "type": "cell-based, human", "conditions": "100 μM, 24 hours", "method": "(§1) Peripheral blood was recovered from patients suffering from chronic […] leukemia (LLC) or from acute myeloid leukemia (AML) in heparinized tubes. […] The cells having experienced an effect of the incubations are labeled with Annexin V alone or with propidium iodide (see FIG. 6)."}, "[5]": {"tested_on": "cells of CLL patients", "assay": "ex vivo cytotoxicity, Annexin V / propidium iodide flow cytometry, CLL patient cells", "type": "cell-based, human", "conditions": "10 μM, 24 hours", "method": "as §1"}, "[6]": {"conditions": "200 μM compound, 0.1 μM cN-II, 100 μM IMP, pH 6.5, 37° C."}},
  "note": "Like-named read-outs stand apart in the source and are kept apart here.",
  "data": [
    {"molecule": "9-(phenylmethyl)-9H-purin-6-yl-[1,1′-biphenyl]-3-carboxamide [(20)]", "values": [
      {"measurement": "Synergy MTT with cladribine", "setting": "[1]", "value": "Antagonistic with (values above 1.1 indicate antagonism)"},
      {"measurement": "Synergy MTT with clofarabine", "setting": "[1]", "value": "Antagonistic with (values above 1.1 indicate antagonism)"},
      {"measurement": "Synergy MTT with fludarabine", "setting": "[1]", "value": "Synergy with (CI95 values below 0.9 indicate synergy between the two compounds)"},
      {"measurement": "synergistic effect with at least one of the three anticancer agents", "setting": "[1]", "value": "synergistic effect"},
      {"measurement": "Inhibition strength (Strong/Medium/Weak)", "setting": "[2]", "value": "S"},
      {"measurement": "Inhibition cN-II in vitro (200 μM)", "setting": "[2]; pH 6.5", "value": "58 +/−19%"}
    ]},
    {"molecule": "O=C(Nc1ncnc2ncn(Cc3ccccc3)c12)c1cccc(-c2ccccc2)c1", "note": "[(19)]", "values": [
      {"measurement": "IC50", "setting": "[3]", "value": 60, "unit": "µM"},
      {"measurement": "Synergy MTT with cladribine", "setting": "[1]", "value": "Synergy with (CI95 values below 0.9 indicate synergy between the two compounds)"},
      {"measurement": "Synergy MTT with fludarabine", "setting": "[1]", "value": "Synergy with (CI95 values below 0.9 indicate synergy between the two compounds)"},
      {"measurement": "synergistic effect with at least one of the three anticancer agents", "setting": "[1]", "value": "synergistic effect"},
      {"measurement": "Inhibition cN-II in vitro (200 μM)", "setting": "[2]; [6]", "value": "68 +/− 15%"},
      {"measurement": "Inhibition strength (Strong/Medium/Weak)", "setting": "[2]; cN-II", "value": "S"}
    ]},
    {"molecule": "O=C(Nc1ncnc2ncn(COCc3ccccc3)c12)c1cccc(-c2ccccc2)c1", "note": "[(21)]", "values": [
      {"measurement": "intrinsic cytotoxic activity, IC50 values", "setting": "[3]; cell model used (RL)", "value": "a few micromolar to a few tens of micromolar"},
      {"measurement": "IC50", "setting": "[3]", "value": 36, "unit": "µM"},
      {"measurement": "Synergy MTT with cladribine", "setting": "[1]", "value": "Synergy with (CI95 values below 0.9 indicate synergy between the two compounds)"},
      {"measurement": "Synergy MTT with clofarabine", "setting": "[1]", "value": "Synergy with (CI95 values below 0.9 indicate synergy between the two compounds)"},
      {"measurement": "Synergy MTT with fludarabine", "setting": "[1]", "value": "Additive with (values between 0.9 and 1.1 indicate additivity)"},
      {"measurement": "synergistic effect with at least one of the three anticancer agents", "setting": "[1]", "value": "synergistic effect"},
      {"measurement": "Inhibition cN-II in vitro (200 μM)", "setting": "[2]; [6]", "value": "50 +/− 2%"},
      {"measurement": "Inhibition strength (Strong/Medium/Weak)", "setting": "[2]; cN-II", "value": "M"}
    ]},
    {"molecule": "O=C(Nc1ncnc2c1ncn2COCc1ccccc1)c1cccc(-c2ccccc2)c1", "note": "[(22), 9-[(phenylmethoxy)methyl]-9H-purin-6-yl-[1,1′-biphenyl]-3-carboxamide]", "values": [
      {"measurement": "IC50", "setting": "[3]", "value": 188, "unit": "µM"},
      {"measurement": "Inhibition cN-II in vitro (200 μM)", "setting": "[2]; [6]", "value": "43 +/− 7%"},
      {"measurement": "Inhibition strength (Strong/Medium/Weak)", "setting": "[2]; cN-II", "value": "M"}
    ]},
    {"molecule": "O=S(=O)(Nc1ncnc2[nH]cnc12)c1ccc(-c2ccccc2)cc1", "note": "[(33), 9H-purin-6-yl-[1,1′-biphenyl]-4-sulfonamide]", "values": [
      {"measurement": "IC50", "setting": "[3]", "value": 195, "unit": "µM"},
      {"measurement": "Inhibition cN-II in vitro (200 μM)", "setting": "[2]; [6]", "value": "70 +/− 5%"},
      {"measurement": "Inhibition strength (Strong/Medium/Weak)", "setting": "[2]; cN-II", "value": "S"}
    ]},
    {"molecule": "Nc1ccn([C@@H]2O[C@H](CO)[C@@H](O)[C@@H]2O)c(=O)n1", "note": "[cytarabine]", "values": [
      {"measurement": "Annexin V labeling, AML samples, mean over the five samples", "setting": "[4]", "value": 44.5, "unit": "%"}
    ]},
    {"molecule": "Nc1nc(F)nc2c1ncn2[C@@H]1O[C@H](CO)[C@@H](O)[C@@H]1O", "note": "[fludarabine]", "values": [
      {"measurement": "Annexin V labeling, CLL samples", "setting": "[5]", "value": 45.8, "unit": "%"}
    ]},
    {"molecule": "(naphthalene-1-carbonylamino-9H-purin-6-yl)methylphosphonic acid [(31)]", "values": [
      {"measurement": "IC50", "setting": "[3]", "value": 250, "unit": "µM"},
      {"measurement": "Inhibition cN-II in vitro (200 μM)", "setting": "[2]; [6]", "value": 10, "unit": "%"},
      {"measurement": "Inhibition strength (Strong/Medium/Weak)", "setting": "[2]; cN-II", "value": "W"}
    ]},
    {"molecule": "(naphthalene-2-carbonylamino-9H-purin-6-yl)methylphosphonic acid [(32)]", "values": [
      {"measurement": "IC50", "setting": "[3]", "value": 145, "unit": "µM"},
      {"measurement": "Inhibition cN-II in vitro (200 μM)", "setting": "[2]; [6]", "value": 10, "unit": "%"},
      {"measurement": "Inhibition strength (Strong/Medium/Weak)", "setting": "[2]; cN-II", "value": "W"}
    ]}
  ]
}
